Measurements published in patent publication US5321041A, “Diphenylpyrrolylfuran derivatives” (Nihon Iyakuhin Kogyo Co., Ltd., priority 1992, dated 1994).
pIC50: −log10 of the molar value. Like-named read-outs stand apart in the source and are kept apart here.

Legend:
[1] = target: T1, 5-lipoxygenase (Cavia porcellus, UniProt A0A286X958); experiment: Inhibitory activity on 5-lipoxygenase; format: biochemical, guinea pigs; settings: 5-HETE generation, 20 μM 14C-arachidonic acid, pH 7.4, 37° C., 10 minutes
T1 construct: crude enzyme fraction prepared from peritoneal exudated cells of guinea pigs; endogenous in cells; host or cells: guinea pig peritoneal exudate cells (induced by intraperitoneal casein), crude enzyme fraction
T1 sequence (A0A286X958 1-674): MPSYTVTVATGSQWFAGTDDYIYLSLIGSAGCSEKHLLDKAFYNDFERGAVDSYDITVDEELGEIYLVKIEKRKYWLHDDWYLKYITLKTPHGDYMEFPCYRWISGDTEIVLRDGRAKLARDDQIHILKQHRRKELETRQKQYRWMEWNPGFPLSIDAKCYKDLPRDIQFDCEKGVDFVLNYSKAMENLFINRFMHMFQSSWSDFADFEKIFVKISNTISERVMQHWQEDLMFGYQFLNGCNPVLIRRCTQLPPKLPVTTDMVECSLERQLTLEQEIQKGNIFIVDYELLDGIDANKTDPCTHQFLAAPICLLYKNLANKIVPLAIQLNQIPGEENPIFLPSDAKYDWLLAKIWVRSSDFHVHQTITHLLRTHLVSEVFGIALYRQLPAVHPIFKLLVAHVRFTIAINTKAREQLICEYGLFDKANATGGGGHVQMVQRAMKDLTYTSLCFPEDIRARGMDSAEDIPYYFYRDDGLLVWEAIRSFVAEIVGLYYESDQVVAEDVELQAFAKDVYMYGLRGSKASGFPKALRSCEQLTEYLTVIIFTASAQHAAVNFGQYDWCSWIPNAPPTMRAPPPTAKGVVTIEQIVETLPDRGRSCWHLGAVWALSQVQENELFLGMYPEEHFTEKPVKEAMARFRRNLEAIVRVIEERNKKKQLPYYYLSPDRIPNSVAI
Description: EXPERIMENT 2: INHIBITORY ACTIVITY ON 5-LIPOXYGENASE
5-Lipoxygenase activity was determined according to the method described by Ochi et al., J. Biol. Chem.,258, p. 5754, 1983 using a crude enzyme fraction prepared from peritoneal exudated cells of guinea pigs which were induced by intraperitoneal injection of 2% case in solution. A solution of a test drug was mixed with a reaction solution (2mM ATP, 1 mM glutathione,and the enzyme fraction in 50 mM phosphate buffer, PH 7.4) and the mixture was pre-incubated at 37° C. for 5 minutes. Calcium chloride (1 mM) and 20 μM^14 C-arachidonic acid were added to the mixture, and then the mixture was subjected to a reaction at 37° C. for 10 minutes. After the completion of the reaction, the product was immediately extracted, dissolved in chloroform/methanol (2:1), and developed by thin-layer chromatography. Radioactivity of the 5-hydroxyeicosatetraenoic acid (5-HETE) fraction was measured using a liquid scintillation counter. Inhibitory rate of each drug-treated group against 5-HETE generation was obtained in comparison with the solvent-treated control, and IC50 was calculated according to the probit method.

[2] = system: paw edema induced by carageenin; experiment: Inhibitory activity on paw edema induced by carageenin; format: in vivo, Wistar rats; settings: rat, oral, 10 mg/kg, 3 hours after carageenin
Description: EXPERIMENT 4: INHIBITORY ACTIVITY ON PAW EDEMA INDUCED BY CARAGEENIN
Wistar rats (body weight: 110-130 g) starved overnight were orally administered with a test drug suspended in 0.5% CMC-Na, and after one hour, 0.1 ml of 1% carageenin solution (picnin-A, Zushi Kagaku) was subcutaneously injected into the right hind leg paw of each rat. Three hours later, the volume of the paw was determined by means of a plethysmometer (Model 7150, Ugo Basile Co.,Ltd.) and the rate of edema was evaluated in comparison with the volume of the paw before the carageenin injection as 100%. Inhibitory rate of each drug-treated group against edema formation was calculated in comparison with the solvent-treated control.

[3] = system: auricle edema induced by oxazolone; experiment: Effect on auricle edema induced by oxazolone (delayed allergy); format: in vivo, ICR mice; settings: mouse, oral, 10 mg/kg × 2 (30 minutes before, 6 hours after), 24 hours
Description: EXPERIMENT 6: EFFECT ON AURICLE EDEMA INDUCED BY OXAZOLONE (DELAYED ALLERGY)
[…]. The mice were sensitized by the application of 0.1 ml of 0.5% oxazolone in ethanol to shaven abdominal skin. Five days later, inflammation was induced by applying 10 μl of 0.5% oxazolone in acetone to front and back surfaces Of the right auricle. After 24 hours, the thicknesses of the left and right auricles were measured by a dial gauge, and the rate of edema of the right auricle was calculated in comparison with the left auricle (normal). A test drug was suspended in 0.5% CMC--Na and orally administered twice to each mouse , i.e., 30 minutes before and 6 hours after the inflammation-inducing treatment. Inhibitory rate of each drug-treated group against edema was calculated in comparison with the solvent-treated control.

[4] = system: platelet aggregation (platelet rich plasma); experiment: Inhibitory activity on platelet aggregation; format: cell-based, Japanese native white domestic rabbits; settings: Oryctolagus cuniculus, rabbit PRP, 37° C.
Description: EXPERIMENT 8: INHIBITORY ACTIVITY ON PLATELET AGGREGATION
Blood of Japanese native white domestic rabbits was taken into a plastic centrifugal tube added with 1/10 in volume of 3.8% sodium citrate solution, and then, platelet rich plasma (PRP) containing 5 to 6×10^8 /ml platelets was obtained by centrifugation for 10 minutes. under 120×G. To 450 μl of the PRP, 25 μl of a solution containing the test drug (Compound 109) dissolved at a desired concentration was added.

[5] = system: ddY mice; experiment: Acute toxicity; format: in vivo; settings: mouse, oral, 600 mg/kg, observed for 2 weeks
Text: EXPERIMENT 9: ACUTE TOXICITY

CCc1ccc(-c2cc(-c3ccc(OC)cc3)c(-c3ccc(OC)cc3)o2)n1CC(=O)O [Compound 109, 2,3-di-(4-methoxyphenyl)-5-(1-carboxymethyl-5-ethyl-2-pyrrolyl)furan]
pIC50 [1]: 6.07 | Inhibition on Edema (%) [2]: 49.5% | Inhibition on Edema (%) [3]: 46.8% | pIC50 ([4]; arachidonic acid (250 μM), read-out: IC50 against platelet aggregation induced by arachidonic acid): 5.82 | pIC50 ([4]; collagen (5 μg/ml), read-out: IC50 against platelet aggregation induced by collagen): 4.88 | Dead Mice/Total Mice [5]: 0/5
